According to PMC9587021, “Construction of a bioluminescence-based assay for bitter taste receptors (TAS2Rs)” (Scientific Reports, 2022):
Blank lines part the entries; values can stand above or below the molecule they belong to.

How the values were obtained:
[1] = biological target: T1, TAS2R16 (Homo sapiens, UniProt Q9NYV7); assay: cell-based; set-up: bioluminescence intracellular calcium release assay, mt-clytin II with coelenterazine, Gα16-gust44 co-expressed
T1 sequence (Q9NYV7 1-291): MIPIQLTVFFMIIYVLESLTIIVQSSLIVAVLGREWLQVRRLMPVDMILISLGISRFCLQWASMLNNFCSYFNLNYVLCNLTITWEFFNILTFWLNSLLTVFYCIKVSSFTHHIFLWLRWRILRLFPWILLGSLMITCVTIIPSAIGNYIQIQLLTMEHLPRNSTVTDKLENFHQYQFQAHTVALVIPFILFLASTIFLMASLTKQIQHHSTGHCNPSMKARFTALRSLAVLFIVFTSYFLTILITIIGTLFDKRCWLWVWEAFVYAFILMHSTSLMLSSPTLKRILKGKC
Protocol: (§1) The bioluminescence-based assay was used to characterize the functional properties of various human TAS2Rs. For each TAS2R, one or more of its cognate agonists were tested against either the AD-293 or 293AD cell line, or both. Both cell lines were used because of their stronger adherent properties, which facilitate media changes on the day of the FLIPR assay. However, because both cell lines are generated differently, some disparities in gene expression capacities due to a myriad of factors could be reasonably expected. Consequently, some TAS2Rs may be well expressed in one cell line but not the other, and the ability of each cell line to express a particular TAS2R needs to be empirically evaluated. […] However, deviations between our experimental and published potency values for some ligands (i.e. TAS2R4: stevioside; TAS2R7: Mg^2+, Mn^2+, Zn^2+) were observed, which could be attributed to the use of a different assay format, readout and processing parameters, use of different cell lines with resultant potential differences in TAS2R expression levels, and quality and methodological differences in ligand preparations. Because potency values could be obtained that were consistent with the literature, or close to the reported minimal effective stimulatory concentration upon further testing of other TAS2R4/7 agonists, the deviation in EC50 values could be largely attributed to qualitative differences in the ligands (Supplementary Fig. S3). Calcium responses induced by the tested cognate agonists reflected specific TAS2R stimulation. […] Poor localization of TAS2Rs to the cell surface in heterologous systems was associated with diminished receptor signaling output and functionality. One of the more commonly used strategies to enhance the density of TAS2Rs at the cell surface involves fusing an N-terminal signal sequence of either the SST3, or Rho receptor to the TAS2R[24]. We adopted this approach, specifically co-expressing SST3-TAS2R with Gα16-gust44 chimera and mt-clytin II, to develop and validate a bioluminescence-based TAS2R intracellular calcium release assay. A strength of the bioluminescence-based TAS2R assay is its capacity to generate greater assay spans than that of fluorescence-based assays, which could be largely attributed to the utilization of mt-clytin II as the calcium reporter. Calcium-binding photoproteins in general are useful reporters for studying calcium-mediated signaling processes. […] Its fast calcium binding and dissociation kinetics render it a suitable indicator to report on swift, transient changes in calcium ion concentrations and study rapid receptor-ligand interactions. Mitochondrial targeting of clytin II was crucial to generating higher luminescence intensity than that of cytosol-localized clytin II, as inositol 1,4,5-triphosphate (IP3)-induced calcium release from the ER subsequent to ligand activation is thought to result in the formation of ER-proximal, calcium-rich microdomains that enabled the closely apposed mitochondria to sense a higher initial rise in calcium concentration than would be experienced by the bulk cytosol.

[2] = biological target: T2, TAS2R9 (Homo sapiens, UniProt Q9NYW1); assay: cell-based; set-up: bioluminescence intracellular calcium release assay, mt-clytin II with coelenterazine, Gα16-gust44 co-expressed; details: 293AD cells
T2 sequence (Q9NYW1 1-312): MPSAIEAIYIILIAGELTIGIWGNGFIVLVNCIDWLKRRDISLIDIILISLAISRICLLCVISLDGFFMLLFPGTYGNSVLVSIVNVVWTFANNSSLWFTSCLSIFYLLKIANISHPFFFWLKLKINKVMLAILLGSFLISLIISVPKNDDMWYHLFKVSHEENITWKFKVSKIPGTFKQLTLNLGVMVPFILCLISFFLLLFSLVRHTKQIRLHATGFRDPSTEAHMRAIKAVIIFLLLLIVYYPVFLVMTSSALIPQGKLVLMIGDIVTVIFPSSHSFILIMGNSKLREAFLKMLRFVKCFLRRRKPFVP
Protocol: as §1

[3] = biological target: T3, TAS2R10 (Homo sapiens, UniProt Q9NYW0); assay: cell-based; set-up: bioluminescence intracellular calcium release assay, mt-clytin II with coelenterazine, Gα16-gust44 co-expressed
T3 sequence (Q9NYW0 1-307): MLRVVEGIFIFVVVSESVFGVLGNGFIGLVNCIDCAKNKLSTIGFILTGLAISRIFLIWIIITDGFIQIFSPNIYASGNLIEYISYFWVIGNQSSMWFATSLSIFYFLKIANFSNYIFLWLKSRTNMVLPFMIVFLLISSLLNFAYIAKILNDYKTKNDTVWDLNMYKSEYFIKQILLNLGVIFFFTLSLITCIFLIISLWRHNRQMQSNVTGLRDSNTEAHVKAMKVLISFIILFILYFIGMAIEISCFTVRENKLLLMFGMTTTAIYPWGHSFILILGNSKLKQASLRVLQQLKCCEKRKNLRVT
Protocol: as §1

[4] = biological target: T4, TAS2R14 (Homo sapiens, UniProt Q9NYV8); assay: cell-based; set-up: species or system 293AD; bioluminescence intracellular calcium release assay, mt-clytin II with coelenterazine, Gα16-gust44 co-expressed
T4 sequence (Q9NYV8 1-317): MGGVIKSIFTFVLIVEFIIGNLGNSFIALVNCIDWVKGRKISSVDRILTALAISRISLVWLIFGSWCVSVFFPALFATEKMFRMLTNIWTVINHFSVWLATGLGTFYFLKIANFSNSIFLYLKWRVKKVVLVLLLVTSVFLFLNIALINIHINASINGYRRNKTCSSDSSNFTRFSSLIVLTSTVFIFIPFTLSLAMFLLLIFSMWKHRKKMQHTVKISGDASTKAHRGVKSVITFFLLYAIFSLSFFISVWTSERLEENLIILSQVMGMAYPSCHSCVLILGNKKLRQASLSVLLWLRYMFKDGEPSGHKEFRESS
Protocol: The bioluminescence-based assay was used to characterize the functional properties of various human TAS2Rs. For each TAS2R, one or more of its cognate agonists were tested against either the AD-293 or 293AD cell line, or both. […] We adopted this approach, specifically co-expressing SST3-TAS2R with Gα16-gust44 chimera and mt-clytin II, to develop and validate a bioluminescence-based TAS2R intracellular calcium release assay.

[5] = biological target: T5, TAS2R13 (Homo sapiens, UniProt Q9NYV9); assay: cell-based; set-up: bioluminescence intracellular calcium release assay, mt-clytin II with coelenterazine, Gα16-gust44 co-expressed; details: 293AD cells
T5 sequence (Q9NYV9 1-303): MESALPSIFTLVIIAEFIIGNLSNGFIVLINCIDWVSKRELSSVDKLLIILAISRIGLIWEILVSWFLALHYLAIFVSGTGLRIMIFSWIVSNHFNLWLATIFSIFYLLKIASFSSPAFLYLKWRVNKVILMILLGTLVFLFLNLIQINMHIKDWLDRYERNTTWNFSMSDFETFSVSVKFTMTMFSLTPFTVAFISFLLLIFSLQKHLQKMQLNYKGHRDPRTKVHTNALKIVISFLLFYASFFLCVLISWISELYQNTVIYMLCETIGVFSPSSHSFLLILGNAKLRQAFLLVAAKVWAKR
Protocol: as §1

[6] = biological target: T6, TAS2R43 (Homo sapiens, UniProt P59537); assay: bioluminescence (mt-clytin II) intracellular calcium release; format: cell-based
T6 construct: AD-293 cells; co-expressed Galpha16-gust44 chimera and mt-clytin II reporter (type 2 multigene vector)
T6 sequence (P59537 2-309): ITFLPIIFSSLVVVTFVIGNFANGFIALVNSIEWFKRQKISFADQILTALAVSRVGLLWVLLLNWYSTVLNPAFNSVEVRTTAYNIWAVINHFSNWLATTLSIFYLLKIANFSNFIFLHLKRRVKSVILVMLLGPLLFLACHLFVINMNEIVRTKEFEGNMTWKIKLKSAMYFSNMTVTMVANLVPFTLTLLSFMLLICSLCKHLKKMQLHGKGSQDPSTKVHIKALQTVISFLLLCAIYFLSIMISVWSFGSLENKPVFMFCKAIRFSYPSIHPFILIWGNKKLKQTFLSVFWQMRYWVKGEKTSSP
Text: bioluminescence (mt-clytin II) intracellular calcium release on TAS2R43 | TAS2R43, both aristolochic acid and aloin could be considered full agonists | indicating the partial agonist activity of caffeine towards TAS2R43

[7] = biological target: T7, TAS2R30 (Homo sapiens, UniProt P59541); assay: cell-based; set-up: bioluminescence intracellular calcium release assay, mt-clytin II with coelenterazine, Gα16-gust44 co-expressed; details: 293AD cells
T7 sequence (P59541 1-319): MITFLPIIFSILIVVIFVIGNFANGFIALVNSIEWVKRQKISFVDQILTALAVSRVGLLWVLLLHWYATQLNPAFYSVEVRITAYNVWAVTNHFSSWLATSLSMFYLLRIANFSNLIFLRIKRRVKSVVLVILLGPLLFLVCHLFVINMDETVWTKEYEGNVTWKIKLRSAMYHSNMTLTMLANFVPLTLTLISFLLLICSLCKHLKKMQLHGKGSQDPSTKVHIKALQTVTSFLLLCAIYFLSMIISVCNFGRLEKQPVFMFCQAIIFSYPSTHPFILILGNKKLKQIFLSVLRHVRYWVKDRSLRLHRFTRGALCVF
Protocol: as §1

SMILES: CN1CCN(CC(=O)N2c3ccccc3C(=O)Nc3cccnc32)CC1 [Pirenzepine]
EC50 [2]: 4000 ± 400 µM

SMILES: COc1cc2c(cc1OC)[C@@]13CCN4CC5=CCO[C@H]6CC(=O)N2[C@H]1[C@H]6[C@H]5C[C@H]43 [Brucine]
EC50 ([3]; 293AD cells): 21 ± 6.5 µM
EC50 ([3]; AD-293 cells): 42 ± 3 µM

SMILES: C=C(C)[C@@H]1[C@H]2OC(=O)[C@@H]1[C@]1(O)C[C@H]3O[C@]34C(=O)O[C@H]2[C@]14C [Picrotoxinin]
EC50 [4]: 54 ± 8.4 µM

SMILES: CC[N+](C)(CC)CCOC(=O)C(O)(c1ccccc1)C1CCCCC1 (stereo not drawn) [Oxyphenonium]
EC50 [5]: 161 ± 16 µM

SMILES: COc1cccc2c1cc([N+](=O)[O-])c1c(C(=O)O)cc3c(c12)OCO3 [aristolochic acid]
EC50 [6]: 0.026 ± 0.003 µM

Other lines, results leading:

EC50 ([1]; 293AD cells): 400 ± 200 µM
EC50 ([1]; AD-293 cells): 2000 ± 600 µM
SMILES: OCc1ccccc1O[C@@H]1O[C@H](CO)[C@@H](O)[C@H](O)[C@H]1O [Salicin]

EC50 [7]: 3 ± 1 µM
SMILES: C=C[C@H]1[C@H](O[C@@H]2O[C@H](CO)[C@@H](O)[C@H](O)[C@H]2OC(=O)c2c(O)cc(O)cc2-c2cccc(O)c2)OC=C2C(=O)OCC[C@H]21 [Amarogentin]
